Assay results as given in US20170348306A1, “METHODS OF TREATING CANCER” (GLAXOSMITHKLINE LLC, priority 2011, published 2017).

What was measured:
[1] = test system: TXNIP and TNFRSF21 expression; experiment: qRT-PCR of H3K27me3-enriched genes; type: cell-based, human; conditions: 72 hours
Method: RNA (2.8 μg) was reverse transcribed with MultiScribe Reverse Transcriptase (Applied BioSystems) according to the manufacturer's recommendations. The resulting cDNA was diluted and used along with TaqMan gene expression assays (Applied Biosystems; GAPDH, Hs03929097_g1; TNFRSF21, Hs00205419_m1; TXNIP, Hs00197750_m1). TaqMan Gene Expression Master Mix (Applied BioSystems), and a ViiA 7 Real-Time PCR System (Applied BioSystems) according to the manufacturer's recommendations to quantify gene expression.

DLBCL cell lines = experiment: Gene expression profiling (Affymetrix Human Genome U133 Plus 2.0); type: cell-based; conditions: 72 hours
Method: (§1) Biochemical assays utilized the 5-member PRC2 complex (human Flag-EZH2, EED, SUZ12, AEBP2, RbAp48) containing either WT or mutant EZH2, [^3H-]SAM and the indicated peptide substrate; reactions were incubated for 30 minutes. Global histone modification levels were determined by ELISA or western blot methods using antibodies specific for total histone H3, H3K27me1, H3K27me2, or H3K27me3. Cell proliferation and Caspase-3/7 activity were assessed using CellTiter-Glo and Caspase-Glo 3/7 (Promega), respectively. Gene expression profiling was conducted using Affymetrix Human Genome U133 Plus 2.0 microarrays. Differentially-expressed probe sets were determined by fitting the data to a linear model using the limma statistical package (http://www.bioconductor.org) and carrying out pair-wise contrasts of treated versus control. Significant probe sets were filtered for detection (log2 signal threshold of 8), an average fold-change >2 or <−2, or >1.5 or <−1.5, where indicated, with p-values adjusted for multiple testing correction by FDR (Benjamini Hochberg)<0.1. H3K27me3 ChIP reads were aligned using Bowtie (56). H3K27me3 enrichment peaks were identified using SICER (57) with optimized parameters. A custom PERL script was utilized to quantify the average basal H3K27me3 ChIP-seq tag density across gene sets. All in vivo studies were conducted after review by the Institutional Animal Care and Use Committee at GSK and in accordance with the GSK Policy on the Care, Welfare and Treatment of Laboratory Animals. GSK126 and vehicle were administered to mice intraperitoneally. Two-tailed t-tests were conducted assuming two samples of equal variance.
Cells (2×10^5/well) were seeded into six-well tissue culture plates in the appropriate cell culture media 24 hours before treatment. […] Cells were collected into Trizol reagent (Invitrogen) and total RNA was isolated via phenol:chloroform extraction and the RNeasy kit (Qiagen) according to the manufacturer's instructions. Total RNA was labeled and hybridized to Affymetrix Human Genome U133 Plus 2.0 oligonucleotide microarrays arrays according to the manufacturer's instructions (Affymetrix, Santa Clara, Calif., USA) at Expression Analysis (Durham, N.C.). […] Principal component and correlation analysis were used to confirm data reproducibility (FIG. 16).
CEL files, corresponding to individual samples, were processed by the Micro Array Suite 5.0 (MASS) algorithm (http://www.affyrmetrix.com/support/index.affx) where signal values were scaled to a target intensity of 500 and log2 transformed. Differentially expressed probe sets were determined by fitting the data to a linear model and carrying out pair-wise contrasts of treated versus control. […]

RC-K8 = experiment: Cell proliferation assay (6 days, CellTiter-Glo); type: cell-based; conditions: Homo sapiens, RCK8, 144 h, B-NHL, EZH2 D185H (HET), read-out: AVERAGE GROWTH IC50
Description: Thus, Example 22 and Table 6 better reflect the inhibition of HZH2 inhibitors on cell lines, e.g. the lymphoma cell lines. DLBCL cell lines were the most sensitive to EZH2 inhibition (FIG. 11a). […] Evaluation of GSK126 in additional lymphoma cell lines and extensive genomic and epigenomic characterization will be required to fully elucidate the determinants of sensitivity among lymphoma subtypes.
as §1
The optimal cell seeding was determined empirically for all cell lines by examining the growth of a wide range of seeding densities in a 384-well format to identify conditions that permitted proliferation for 6 days. […] Plates were incubated for 6 days at 37° C. in 5% CO2. Cells were then lysed with CellTiter-Glo (Promega) and chemiluminescent signal was detected with a TECAN Safire2 microplate reader. In addition, an untreated plate of cells was harvested at the time of compound addition (T0) to quantify the starting number of cells. CTG values obtained after the 6 day treatment were expressed as a percent of the T0 value and plotted against compound concentration.

[2] = Tolerability in xenograft-bearing mice (body weight, behavior); type: in vivo
Method: (§2) All studies were conducted after review by the Institutional Animal Care and Use Committee at GSK and in accordance with the GSK Policy on the Care, Welfare and Treatment of Laboratory Animals. […] Pfeiffer or KARPAS-422 cells (1×10^7) in 100% matrigel (BD Biosciences) were implanted subcutaneously in female beige SCID mice. Tumors were measured with calipers, block randomized according to tumor size into treatment groups. […] Mice were weighed and tumors measured with calipers twice weekly. For mouse pharmacokinetic studies, tumor and blood samples were harvested from euthanized mice at the indicated time. […] For pharmacodynamic studies, a portion of each tumor was frozen for H3K27me3/H3 ELISAs or placed in RNAlater (Ambion) for RNA isolation. For peripheral blood analyses, blood was harvested via cardiac puncture from euthanized, immunocompetent CD-1 mice (3 mice/group) on day 18. Blood was immediately placed into a Microtainer EDTA tube (BD) and gently mixed by inverting. A complete blood count analysis was conducted using the Advia 2120 hematology analyzer (Siemens Medical Solutions) using multi-species software as per manufacturer's instructions.

KARPAS-422 xenografts = experiment: Subcutaneous tumor xenograft efficacy study; type: in vivo, mice; conditions: for tumor response upon cessation of dosing / tumor growth: KARPAS-422 xenografts
Method: as §1, §2

Pfeiffer xenografts = experiment: Subcutaneous tumor xenograft efficacy study; type: in vivo, mice; conditions: daily 50 mg/kg, intraperitoneal
Method: as §1, §2

SMILES: CC[C@H](C)n1cc(C)c2c(C(=O)NCc3c(C)cc(C)[nH]c3=O)cc(-c3ccc(N4CCNCC4)nc3)cc21 [GSK126]
- lowest concentration with dose-responsive increases in gene expression ([1]; Pfeiffer and KARPAS-422, two H3K27me3-enriched genes): 25 nM
- gene expression changes (qRT-PCR) ([1]; Toledo, up to 1 μM GSK126): no transcriptional changes
- up-regulated probe sets common to at least 4 of 5 mutant cell lines (DLBCL cell lines; Pfeiffer, KARPAS-422, WSU-DLCL2, SU-DHL-10, SU-DHL-6, 500 nM): 35 probe sets
- down-regulated probe sets (DLBCL cell lines; Toledo, 2 μM GSK126): 10 probe sets
- up-regulated probe sets (DLBCL cell lines; Toledo, 2 μM GSK126): 23 probe sets
- share of up-regulated among gene expression changes (DLBCL cell lines; five most sensitive EZH2 mutant cell lines, 500 nM): 69-95%
- IC50 (RC-K8): 4.53 µM
- tolerability ([2]; doses and schedules examined, mice with xenografts): well tolerated
- body weight ([2]; mice bearing Pfeiffer or KARPAS-422 xenografts): little to no decrease in body weight
- tumor growth inhibition (KARPAS-422 xenografts; KARPAS-422 xenografts with large tumors, intermittent dosing, weekly or with 1 week drug holiday, all schedules): 91-100%
- tumor response upon cessation of dosing (KARPAS-422 xenografts; 50 mg/kg QD group): tumor stasis
- tumor response upon cessation of dosing (KARPAS-422 xenografts; 150 mg/kg QD group): complete tumor eradication
- tumor response upon cessation of dosing (KARPAS-422 xenografts; 300 mg/kg twice/week group): complete tumor eradication
- tumor growth (KARPAS-422 xenografts; daily 50 mg/kg, intraperitoneal): complete tumor growth inhibition
- tumor growth (KARPAS-422 xenografts; higher dosing regimens): marked tumor regression
- survival of mice (KARPAS-422 xenografts; mice bearing KARPAS-422 tumors): statistically significant increased survival
- tumor growth (Pfeiffer xenografts): complete tumor growth inhibition
